Reference: US20040067507A1, “Liver inflammation predictive genes” (priority 2002, published 2004)
Like-named read-outs stand apart in the source and are kept apart here.

System: Sprague Dawley rats Crl:CD
Format: in vivo, rat
Description: In addition to the database described and utilized herein, other toxicology gene expression databases may be generated, and used to identify additional liver toxicity biomarkers, which may also be employed in the practice of the liver inflammation prediction methods of the invention. […] An example of compounds, dose levels, liver toxicity classifications and histopathology scores used in the Examples which follow are provided in Table 1. The compounds and dose levels are abbreviated in the Abbreviation Column. The Inflammation Score relates the histopathology liver inflammation, a score of “2” or higher indicates histopathology of increasing severity.
Identification of Correlating Genes: For the purpose of identifying candidate predictive genes, the database preferably includes histopathology scores for each animal which has been exposed to one or more agent(s). […] The scores are numerical scores that reflect the occurrence and severity of histopathological changes. These scores can be adjusted to have similar range to gene expression changes. […] Because the scores are numerical, they are suitable for use with a variety of statistical correlation and similarity measures.
Sprague Dawley rats Crl:CD from Charles River, Raleigh, N.C. were divided into treated rats that receive a specific concentration of the compound (see Table 1) and the control rats that only received the vehicle in which the compound is mixed (e.g., saline).
At specified timepoints (6 h, 24 h and 72 h) after administration (intraperitoneal route) of the compound, a set number of rats (usually 3 control and 3 treated) were euthanized and tissues collected. Each rat was heavily sedated with an overdose of CO2 by inhalation and a maximum amount of blood drawn. Exsanguination of the rat by this drawing of blood kills the rat. The method of collecting the tissues is very important and ensures preserving the quality of the mRNA in the tissues. The body of the rat was then opened up and prosectors rapidly removed the tissues (including liver) and immediately placed them into liquid nitrogen. […] The organs/tissues were then packaged into well-labeled plastic freezer quality bags and stored at −80 degrees until needed for isolation of the mRNA from a portion of the organ/tissue sample.
Correlation with Histopathology Scores: Histopathology scores for each animal (assigned on a compound-dose basis as indicated in Table 1) were entered with gene expression data by using the GeneSpring™ ‘Drawn Gene’ function. Correlations between inflammation histopathology scores and gene expression were conducted with the distance measures listed below: […]

[1] = Sprague Dawley Crl:CD, rat, in vivo
[2] = 8 mg/kg i.p., 72 h, 1=no histopathology, 2 or higher=increasing severity
[3] = 30 mg/kg i.p., 72 h, 1=no histopathology, 2 or higher=increasing severity
[4] = 2 mg/kg i.p., 72 h, 1=no histopathology, 2 or higher=increasing severity
[5] = 5 mg/kg i.p., 72 h, 1=no histopathology, 2 or higher=increasing severity
[6] = 20 mg/kg i.p., 72 h, 1=no histopathology, 2 or higher=increasing severity
[7] = Sprague Dawley Crl:CD, rat, in vivo, ip
[8] = 80 mg/kg i.p., 72 h, 1=no histopathology, 2 or higher=increasing severity
[9] = 75 mg/kg i.p., 72 h, 1=no histopathology, 2 or higher=increasing severity
[10] = 250 mg/kg i.p., 72 h, 1=no histopathology, 2 or higher=increasing severity
[11] = 25 mg/kg i.p., 72 h, 1=no histopathology, 2 or higher=increasing severity
[12] = 100 mg/kg i.p., 72 h, 1=no histopathology, 2 or higher=increasing severity
[13] = 0.5 mg/kg i.p., 72 h, 1=no histopathology, 2 or higher=increasing severity
[14] = 16 mg/kg i.p., 72 h, 1=no histopathology, 2 or higher=increasing severity
[15] = 12 mg/kg i.p., 72 h, 1=no histopathology, 2 or higher=increasing severity
[16] = 1.3 mg/kg i.p., 72 h, 1=no histopathology, 2 or higher=increasing severity
[17] = 0.1 mg/kg i.p., 72 h, 1=no histopathology, 2 or higher=increasing severity
[18] = 0.4 mg/kg i.p., 72 h, 1=no histopathology, 2 or higher=increasing severity
[19] = 40 mg/kg i.p., 72 h, 1=no histopathology, 2 or higher=increasing severity
[20] = 160 mg/kg i.p., 72 h, 1=no histopathology, 2 or higher=increasing severity
[21] = 38 mg/kg i.p., 72 h, 1=no histopathology, 2 or higher=increasing severity
[22] = 150 mg/kg i.p., 72 h, 1=no histopathology, 2 or higher=increasing severity

Molecule: CN(C)[C@@H]1C(O)=C(C(N)=O)C(=O)[C@@]2(O)C(O)=C3C(=O)c4c(O)cccc4[C@@](C)(O)[C@H]3C[C@@H]12 [tetracycline]
- Inflamm. Score [1]: 1
- Liver Inflammation (rat, in vivo): no

Molecule: CN(C)CCCN1c2ccccc2Sc2ccc(Cl)cc21 [chlorpromazine]
- Liver Inflammation (8 mg/kg i.p., 72 h): no
- Liver Necrosis (8 mg/kg i.p., 72 h): no
- Inflamm. Score [2]: 1
- Necr. Score [2]: 1
- Liver Inflammation (30 mg/kg i.p., 72 h): no
- Liver Necrosis (30 mg/kg i.p., 72 h): no
- Inflamm. Score [3]: 1
- Necr. Score [3]: 1

Molecule: O=P1(N(CCCl)CCCl)NCCCO1 (stereo not shown) [cyclophosphamide]
- Inflamm. Score [1]: 1
- Necr. Score [1]: 1
- Liver Inflammation (rat, in vivo): no
- Liver Necrosis (rat, in vivo): no

Molecule: lipopolysaccharide
- Liver Inflammation (2 mg/kg i.p., 72 h): no
- Liver Necrosis (2 mg/kg i.p., 72 h): no
- Inflamm. Score [4]: 1
- Necr. Score [4]: 1
- Liver Inflammation (8 mg/kg i.p., 72 h): yes
- Liver Necrosis (8 mg/kg i.p., 72 h): yes
- Inflamm. Score [2]: 2
- Necr. Score [2]: 6
- liver necrosis or necrosis with inflammation (high dose): produced liver necrosis or necrosis with inflammation
- liver necrosis or necrosis with inflammation (low dose): not at the low dose

Molecule: C[C@@H]1[C@H](O)[C@@H](C)/C=C/C=C/C=C/C=C/C=C/C=C/C=C/[C@H](O[C@@H]2O[C@H](C)[C@@H](O)[C@H](N)[C@@H]2O)C[C@@H]2O[C@](O)(C[C@@H](O)C[C@@H](O)[C@H](O)CC[C@@H](O)C[C@@H](O)CC(=O)O[C@H]1C)C[C@H](O)[C@H]2C(=O)O [amphotericin B]
- Liver Inflammation (5 mg/kg i.p., 72 h): no
- Liver Necrosis (5 mg/kg i.p., 72 h): no
- Inflamm. Score [5]: 1
- Necr. Score [5]: 1
- Liver Inflammation (20 mg/kg i.p., 72 h): no
- Liver Necrosis (20 mg/kg i.p., 72 h): no
- Inflamm. Score [6]: 1
- Necr. Score [6]: 1

Molecule: ClC(Cl)Cl [chloroform]
- Inflamm. Score [7]: 1
- Necr. Score [7]: 1
- Liver Inflammation (rat, in vivo, ip): no
- Liver Necrosis (rat, in vivo, ip): no

Molecule: CC(=O)N1CCN(c2ccc(OCC3COC(Cn4ccnc4)(c4ccc(Cl)cc4Cl)O3)cc2)CC1 (stereo not shown) [ketoconazole]
- Inflamm. Score [1]: 1
- Necr. Score [1]: 1
- Liver Inflammation (rat, in vivo): no
- Liver Necrosis (rat, in vivo): no

Molecule: NNc1ccccc1 [phenylhydrazine]
- Liver Inflammation (20 mg/kg i.p., 72 h): no
- Liver Necrosis (20 mg/kg i.p., 72 h): no
- Inflamm. Score [6]: 1
- Necr. Score [6]: 1
- Liver Inflammation (80 mg/kg i.p., 72 h): no
- Liver Necrosis (80 mg/kg i.p., 72 h): no
- Inflamm. Score [8]: 1
- Necr. Score [8]: 1

Molecule: CN(C)N=O [dimethylnitrosamine]
- Liver Inflammation (20 mg/kg i.p., 72 h): yes
- Liver Necrosis (20 mg/kg i.p., 72 h): yes
- Inflamm. Score [6]: 4
- Necr. Score [6]: 9

Molecule: c1ccccc1 [benzene]
- Inflamm. Score [7]: 1
- Necr. Score [7]: 1
- Liver Inflammation (rat, in vivo, ip): no
- Liver Necrosis (rat, in vivo, ip): no

Molecule: CCOC(=O)C(C)(C)Oc1ccc(Cl)cc1 [clofibrate]
- Liver Inflammation (75 mg/kg i.p., 72 h): no
- Liver Necrosis (75 mg/kg i.p., 72 h): no
- Inflamm. Score [9]: 1
- Necr. Score [9]: 1
- Liver Inflammation (250 mg/kg i.p., 72 h): no
- Liver Necrosis (250 mg/kg i.p., 72 h): no
- Inflamm. Score [10]: 1
- Necr. Score [10]: 1

Molecule: C=C[C@H]1C[N@@]2CC[C@H]1C[C@@H]2[C@@H](O)c1ccnc2ccc(OC)cc12 [quinidine]
- Liver Inflammation (25 mg/kg i.p., 72 h): no
- Liver Necrosis (25 mg/kg i.p., 72 h): no
- Inflamm. Score [11]: 1
- Necr. Score [11]: 1
- Liver Inflammation (100 mg/kg i.p., 72 h): no
- Liver Necrosis (100 mg/kg i.p., 72 h): no
- Inflamm. Score [12]: 1
- Necr. Score [12]: 1

Molecule: CCC1(c2ccccc2)C(=O)NC(=O)NC1=O [phenobarbital]
- Liver Inflammation (20 mg/kg i.p., 72 h): no
- Liver Necrosis (20 mg/kg i.p., 72 h): no
- Inflamm. Score [6]: 1
- Necr. Score [6]: 1
- Liver Inflammation (80 mg/kg i.p., 72 h): no
- Liver Necrosis (80 mg/kg i.p., 72 h): no
- Inflamm. Score [8]: 1
- Necr. Score [8]: 1

Molecule: C[C@@H]1C[C@@H]([C@H](O)CC2CC(=O)NC(=O)C2)C(=O)[C@@H](C)C1 [cycloheximide]
- Liver Inflammation (0.5 mg/kg i.p., 72 h): no
- Liver Necrosis (0.5 mg/kg i.p., 72 h): no
- Inflamm. Score [13]: 1
- Necr. Score [13]: 1
- Liver Inflammation (2 mg/kg i.p., 72 h): no
- Liver Necrosis (2 mg/kg i.p., 72 h): no
- Inflamm. Score [4]: 1
- Necr. Score [4]: 1

Molecule: CCO [ethanol]
- Inflamm. Score [7]: 1
- Necr. Score [7]: 1
- Liver Inflammation (rat, in vivo, ip): no
- Liver Necrosis (rat, in vivo, ip): no

Molecule: O=NN(CCCl)C(=O)NCCCl [carmustine]
- Liver Inflammation (16 mg/kg i.p., 72 h): no
- Liver Necrosis (16 mg/kg i.p., 72 h): no
- Inflamm. Score [14]: 1
- Necr. Score [14]: 1

Molecule: O=C(O)c1cc(-c2ccc(F)cc2F)ccc1O [diflunisal]
- Inflamm. Score [1]: 1
- Necr. Score [1]: 1
- Liver Inflammation (rat, in vivo): no
- Liver Necrosis (rat, in vivo): no

Molecule: COc1cccc2c1C(=O)c1c(O)c3c(c(O)c1C2=O)C[C@@](O)(C(=O)CO)C[C@@H]3O[C@H]1C[C@H](N)[C@H](O)[C@H](C)O1 [doxorubicin]
- Liver Inflammation (12 mg/kg i.p., 72 h): no
- Liver Necrosis (12 mg/kg i.p., 72 h): no
- Inflamm. Score [15]: 1
- Necr. Score [15]: 1

Molecule: CN(Cc1cnc2nc(N)nc(N)c2n1)c1ccc(C(=O)N[C@@H](CCC(=O)O)C(=O)O)cc1 [methotrexate]
- Liver Inflammation (1.3 mg/kg i.p., 72 h): no
- Liver Necrosis (1.3 mg/kg i.p., 72 h): no
- Inflamm. Score [16]: 1
- Necr. Score [16]: 1
- Liver Inflammation (5 mg/kg i.p., 72 h): no
- Liver Necrosis (5 mg/kg i.p., 72 h): no
- Inflamm. Score [5]: 1
- Necr. Score [5]: 1

Molecule: C=CCN1CC[C@]23c4c5ccc(O)c4O[C@H]2C(=O)CC[C@@]3(O)[C@H]1C5 [naloxone]
- Inflamm. Score [1]: 1
- Necr. Score [1]: 1
- Inflamm. Score [7]: 1
- Necr. Score [7]: 1
- Liver Inflammation (rat, in vivo): no
- Liver Necrosis (rat, in vivo): no
- Liver Inflammation (rat, in vivo, ip): no
- Liver Necrosis (rat, in vivo, ip): no

Molecule: C[C@]12CC[C@@H]3c4ccc(O)cc4CC[C@H]3[C@@H]1CC[C@@H]2O [estradiol]
- Liver Inflammation (0.1 mg/kg i.p., 72 h): no
- Liver Necrosis (0.1 mg/kg i.p., 72 h): no
- Inflamm. Score [17]: 1
- Necr. Score [17]: 1
- Liver Inflammation (0.4 mg/kg i.p., 72 h): no
- Liver Necrosis (0.4 mg/kg i.p., 72 h): no
- Inflamm. Score [18]: 1
- Necr. Score [18]: 1

Molecule: CCC(=O)O[C@H]1[C@H](O[C@@H]2[C@@H](C)[C@H](O[C@H]3C[C@@](C)(OC)[C@@H](O)[C@H](C)O3)[C@@H](C)C(=O)O[C@H](CC)[C@@](C)(O)[C@H](O)[C@@H](C)C(=O)[C@H](C)C[C@@]2(C)O)O[C@H](C)C[C@@H]1N(C)C [erythromycin estolate]
- Liver Inflammation (40 mg/kg i.p., 72 h): no
- Liver Necrosis (40 mg/kg i.p., 72 h): no
- Inflamm. Score [19]: 1
- Necr. Score [19]: 1
- Liver Inflammation (160 mg/kg i.p., 72 h): no
- Liver Necrosis (160 mg/kg i.p., 72 h): no
- Inflamm. Score [20]: 1
- Necr. Score [20]: 1

Molecule: Cn1cnc([N+](=O)[O-])c1Sc1ncnc2nc[nH]c12 [azathioprine]
- Inflamm. Score [1]: 1
- Necr. Score [1]: 1
- Liver Inflammation (rat, in vivo): no
- Liver Necrosis (rat, in vivo): no

Molecule: gentamicin
- Liver Inflammation (38 mg/kg i.p., 72 h): no
- Liver Necrosis (38 mg/kg i.p., 72 h): no
- Inflamm. Score [21]: 1
- Necr. Score [21]: 1
- Liver Inflammation (150 mg/kg i.p., 72 h): no
- Liver Necrosis (150 mg/kg i.p., 72 h): no
- Inflamm. Score [22]: 1
- Necr. Score [22]: 1
